According to PMC8092209, “Structural Basis of Ligand Selectivity by a Bacterial Adhesin Lectin Involved in Multispecies Biofilm Formation” (mBio, 2021):
pKd: −log10 of the molar value. Values joined by “and” are separate entries in the source; they are usually repeats but may differ in a detail not shown here. Equal entries are not always repeated.

Assays:
MpPA14 [1] = target: T1, MpPA14 (Marinomonas primoryensis, UniProt A1YIY3); assay: Dextran-based comparative competition assay (MpPA14); format: binding
Source text: To gain insight into the binding specificity of MpPA14, we investigated the relative affinity of various monosaccharides for the lectin by a comparative competition assay ([12]). MpPA14 bound to Superdex resin was competitively released into solution by the progressive addition of free sugars. The released protein concentrations measured by absorbance at 280 nm were plotted as a function of free sugar concentration to produce semiquantitative binding curves (Fig. 1A and B). The apparent dissociation constant (Kdapp) calculated from these binding curves was used as a relative measure of affinity for each assayed sugar (Table 1). […] D-Ribose bound […] more strongly than its derivative 2-deoxy-D-ribose (Kdapp of 6.8 mM as opposed to 18 mM; Fig. 1B and Table 1).
(§1) The dextran resin competition assay was performed as previously described for MhPA14 ([12]). Briefly, Superdex 200 (S200) resin was washed twice with 50 mM Tris-HCl (pH 9), 150 mM NaCl, and 5 mM CaCl2. One ml of 1 mg/ml MpPA14 with green fluorescent protein (GFP) fused to its N terminus (GFP-MpPA14) or VcPA14 labeled with FITC was suspended with 300 μl of equilibrated Superdex 200 (S200) resin. Following an incubation period with gentle mixing, the S200 resin bound with GFP-MpPA14 was pelleted by centrifugation. The pellet was washed twice with 50 mM Tris-HCl (pH 9), 150 mM NaCl, and 5 mM CaCl2, and the A280 of the supernatant from the second wash was used as the baseline reading. Next, after resuspension in the same buffer, aliquots of 1.67 μmol saccharide were sequentially added to the solution six or seven times, with the A280 of the supernatant being measured after each addition to quantify the release of lectin. The final addition of saccharide was […]. Data from the dextran affinity assay were plotted using GraphPad Prism after subtracting the background. Next, the data were fitted to a nonlinear regression of one-site-specific binding, which follows the model y/Bmax = x/(Kd + x), with Bmax as the maximum specific binding and Kd as the equilibrium binding constant.

MpPA14 [2] = target: T1, MpPA14; assay: Isothermal titration calorimetry; format: binding; conditions: 30°C; for ΔH (enthalpy) / ΔS (entropy) / binding stoichiometry (N value): ITC; for binding stoichiometry (N value): one-binding-site model; for pKd: Kd (dissociation constant, ITC), free sugar in solution
Source text: The ITC measurements produced rectangular hyperbolic curves for all three simple saccharides, and fitted well to a one-binding-site model with calculated binding stoichiometry (N) values being close to 1 ([12], [21]). […] However, this is to be expected, because the dextran beads used in the competition assay have multiple binding sites nearby that attract the lectin, whereas the calorimetry was done with free sugars in solution. […] In general, the affinity of lectins for monosaccharides (Kd values) lies within the high micromolar to millimolar range ([8], [30], [31]). […] Furthermore, negative enthalpy (ΔH) and entropy (ΔS) contributions were calculated for all three carbohydrates when they bound to MpPA14, which indicated the binding was driven primarily by polar interaction such as the formation of hydrogen and ionic bonds rather than by hydrophobic interactions. This was consistent with the observation that the Ca^2+-dependent ligand-binding site of MpPA14 consisted of mainly polar and charged amino acids without any residues with large hydrophobic side chains. We therefore acquired detailed structural information to study MpPA14 ligand recognition.
Isothermal titration calorimetry (ITC) measurements were performed at 30°C with a MicroCal VP-ITC instrument (Malvern). […] Sugars were automatically added by a rotating syringe (400 rpm) at 5-min intervals into the MpPA14 solution for a total of 50 injections. The data were analyzed with Origin software version 5.0 (MicroCal).

[3] = tested on: FITC-labeled VcPA14 binding to C. neogracile; assay: Diatom binding experiment with FITC-VcPA14; format: cell-based, Chaetoceros neogracile; conditions: 0.5 mM sugar
Method: (§2) As proof of concept for the antiadhesion strategy that targets microbial pathogens, we studied the VcPA14 lectin domain from a large 6,938-amino-acid RTX adhesin (GenBank accession number WP_154597608) of the cholera-causing bacterium, V. cholerae. As discussed, VcPA14 has a similar ligand-binding site as that of MpPA14 (Fig. S1), with key sugar-binding residues conserved (Fig. S1G).
The Antarctic diatom, Chaetoceros neogracile, was cultured as previously described ([21], [50]). FITC-labeled MpPA14 or VcPA14 (FITC-MpPA14 or FITC-VcPA14, 0.2 mg/ml) in the presence or absence of sugars was incubated with diatoms in buffer (50 mM Tris-HCl [pH 9], 300 mM NaCl, and 5 mM CaCl2) with gentle mixing for 2 h. […] This procedure was repeated three times to wash away unbound FITC-MpPA14 before the diatom pellet was finally resuspended in 20 μl buffer, which was then used to make slides for fluorescence microscopy. […]
Images were obtained using an Olympus IX83 inverted fluorescence microscope equipped with an Andor Zyla 4.2 Plus camera. Quantification of the fluorescence intensity was done using Fiji ImageJ. The corrected total cell fluorescence (CTCF) was calculated using the following formula: CTCF = integrated density − (area of selected cell × mean fluorescence of the background) ([60]). Quantification of 30 individual diatom cells was done for each treatment. […]

[4] = tested on: FITC-labeled MpPA14 binding to the diatom Chaetoceros neogracile; assay: Diatom binding experiment with FITC-MpPA14; format: cell-based
Source text: C. neogracile is a psychrophilic marine diatom found in Antarctic waters ([50]). […] Each diatom cell has 1 to 4 projections protruding from the corners. Given its photosynthetic capability, C. neogracile contains chlorophyll that is intrinsically fluorescent. […] We reason that glycans coating the diatom cell membrane present numerous end group binding sites in close proximity that can serve as a “molecular Velcro” for MpPA14 binding ([30]).
The Antarctic diatom, Chaetoceros neogracile, was cultured as previously described ([21], [50]). FITC-labeled MpPA14 or VcPA14 (FITC-MpPA14 or FITC-VcPA14, 0.2 mg/ml) in the presence or absence of sugars was incubated with diatoms in buffer (50 mM Tris-HCl [pH 9], 300 mM NaCl, and 5 mM CaCl2) with gentle mixing for 2 h. Next, diatoms were pelleted by centrifugation for 3 min at 7,000 rpm, and the resulting supernatant was discarded. This procedure was repeated three times to wash away unbound FITC-MpPA14 before the diatom pellet was finally resuspended in 20 μl buffer, which was then used to make slides for fluorescence microscopy. In a separate experiment to test if fucose could compete off the MpPA14 that was already bound to diatoms, FITC-MpPA14 was incubated with diatom for 1.5 h before fucose was added. The rest of the experiment followed the same procedure as described above.
Images were obtained using an Olympus IX83 inverted fluorescence microscope equipped with an Andor Zyla 4.2 Plus camera. Quantification of the fluorescence intensity was done using Fiji ImageJ. The corrected total cell fluorescence (CTCF) was calculated using the following formula: CTCF = integrated density − (area of selected cell × mean fluorescence of the background) ([60]). Quantification of 30 individual diatom cells was done for each treatment. Graphs were made using GraphPad Prism.

VcPA14 = assay: Dextran-based comparative competition assay (VcPA14); format: binding, Vibrio cholerae; conditions: FITC-VcPA14 on Superdex 200 resin
Method: as §2
as §1, with “Data from the dextran affinity assay were plotted using GraphPad Prism after subtracting the background. Next, the data were fitted to a nonlinear regression of one-site-specific binding, which follows the model y/Bmax = x/(Kd + x), with Bmax as the maximum specific binding and Kd as the equilibrium binding constant.” left out

[5] = GFP-MpPA14 bound to Superdex 200 resin released by free sugar, A280, pH 9, 5 mM CaCl2, – = no detectable binding (footnote a), read-out: Kdapp (apparent dissociation constant)

T1 sequence (A1YIY3 entry or part of it): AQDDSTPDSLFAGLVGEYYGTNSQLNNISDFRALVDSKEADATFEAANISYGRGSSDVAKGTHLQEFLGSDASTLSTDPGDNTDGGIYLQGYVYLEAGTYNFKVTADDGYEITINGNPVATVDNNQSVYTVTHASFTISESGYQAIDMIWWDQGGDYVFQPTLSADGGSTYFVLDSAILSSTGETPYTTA

## OC1OC[C@H](O)[C@H](O)[C@H]1O (mixture of isomers) [L-Arabinose]
MpPA14 [1]
  pKd: 2.66

## O=CC[C@@H](O)[C@H](O)[C@H](O)CO [2-Deoxy-glucose, 2-deoxy-glucose]
MpPA14 [1]
  pKd: 2.86 and 2.85

## O=CC[C@H](O)[C@H](O)CO [2-Deoxy-ribose, 2-deoxy-D-ribose]
MpPA14 [1]
  pKd: 1.74

## CO[C@@H]([C@H](O)[C@H](O)CO)[C@@H](O)C=O [3-O-methyl-glucose, 3-O-methyl-D-glucose]
MpPA14 [1]
  pKd: 2.24

## O=C[C@H](O)[C@@H](O)[C@@H](O)[C@H](O)CO [Galactose, D-galactose]
MpPA14 [1]
  pKd: 2.39

## OC[C@H]1OC(O)[C@H](O)[C@@H](O)[C@@H]1O (stereo partly shown) [Glucose]
MpPA14 [2]
  ΔH (enthalpy): -10,880 ± 42.71 cal/mol
  ΔS (entropy): -20.1 cal/ mol/K
  binding stoichiometry (N value): 0.952 ± 0.0216
  pKd: 3.46
MpPA14 [1]
  pKd: 2.87 and 2.85

## O[C@H]1[C@H](O)[C@@H](O)[C@H](O)[C@@H](O)[C@H]1O [Inositol, myo-inositol]
MpPA14 [1]
  pKd: 2.57

## C[C@H](O)[C@@H](O)[C@@H](O)[C@H](O)C=O [L-Fucose, L-fucose]
[3]
  blocking of FITC-VcPA14 binding to C. neogracile (in words): largely blocked
MpPA14 [2]
  ΔH (enthalpy): -11,800 ± 191.8 cal/mol
  ΔS (entropy): -21.4 cal/ mol/K
  binding stoichiometry (N value): 1.01 ± 0.0131
  pKd: 3.83 and ~3.82
[4]; 0.1 mM sugar, 0.2 mg/ml FITC-MpPA14
  fluorescent signal displaced (competitive effect): ~40%
[4]; 0.5 mM sugar added after 1.5 h incubation of lectin with diatoms
  effect on diatoms precoated with FITC-labeled MpPA14 (in words): resulted in the dissociation of the lectin from the cells
[4]; 0.5 mM sugar, 0.2 mg/ml FITC-MpPA14
  fluorescent signal displaced: 95%
MpPA14 [1]
  pKd: 3.19

## OC[C@H]1OC(O)[C@@H](O)[C@@H](O)[C@@H]1O (stereo partly drawn) [Mannose, D-Mannose]
MpPA14 [1]
  pKd: 2.77

## COC1OC(CO)C(O)C(O)C1O [Methyl-α-glucose, methyl-α-D-glucose]
MpPA14 [1]; [5]
  pKd: 2.68

## CC(=O)N[C@@H]1[C@@H](O)[C@@H](O)[C@@H](CO)O[C@@H]1O [N-acetyl-galactosamine]
[4]; 50 mM sugar, 0.2 mg/ml FITC-MpPA14
  prevention of lectin binding to the diatom (in words): unable to prevent the lectin from binding the diatom
VcPA14
  relative binding to VcPA14 (in words): cannot bind
MpPA14 [1]; GFP-MpPA14 bound to Superdex 200 resin released by free sugar, A280, pH 9, 5 mM CaCl2, – = no detectable binding (footnote a)
  Kdapp (apparent dissociation constant): no measurable interaction
MpPA14 [1]; [5]
  pKd: < 1.74

## CC(=O)N[C@@H]1[C@@H](O)[C@H](O)[C@@H](CO)O[C@H]1O [N-acetyl-glucosamine, N-acetylglucosamine]
MpPA14 [2]
  ΔH (enthalpy): -15,810 ± 226.1 cal/mol
  ΔS (entropy): -34.9 cal/ mol/K
  binding stoichiometry (N value): 1 ± 0.0116
  pKd: 3.77 and ~3.82
VcPA14
  relative binding to VcPA14 (in words): more strongly than glucose
MpPA14 [1]
  pKd: 2.97

## O=C[C@H](O)[C@H](O)[C@H](O)CO [Ribose, D-Ribose]
MpPA14 [1]; [5]
  pKd: 2.17

## O=C[C@H](O)[C@@H](O)[C@H](O)CO [Xylose]
MpPA14 [1]
  pKd: 1.96
